Laboratory results as given in ChEMBL document CHEMBL1122274, “Inhibitors of glycolic acid oxidase. 4-substituted 2,4-dioxobutanoic acid derivatives” (J Med Chem, 1983).

Columns and labels:
[1] = Acidic dissociation constant (pKa) determined in 50% aqueous ethanol;ND is defined as no-data.; assay type: physicochemical
[2] = Acidic dissociation constant (pKa) determined in 50% aqueous ethanol; assay type: physicochemical

pKa [1]: 3.34
pKa [2]: 3.34
SMILES: O=C(O)C(=O)CC(=O)c1ccc(-c2ccccc2)cc1
